Assays:
MAO-B versus MAO-A = test: Selectivity of MAO inhibitors - In vitro (14C 5-hydroxytryptamine for MAO-A, 14C phenethylamine for MAO-B); format: biochemical, rat; conditions: for Selectivity (ratio of inhibitory activity against MAO-B versus MAO-A): in vitro, rat brain mitochondria
Experimental: Mitochondria are prepared from rat brain by homogenation in phosphate buffer (0.1 M, pH 7.2) followed by differential centrifugation. The mitochondria are suspended in the same buffer, the test compound is added at the desired concentration, and the system is incubated. […] Christmas, et al, supra).
Selectivity is expressed as the ratio of the inhibitory activity against MAO-B versus the inhibitory activity against MAO-A.

MAO [1] = test: Inhibition of MAO - In vitro (14C p-tyramine substrate, partially purified rat brain mitochondria); format: biochemical; conditions: tested as hydrochloride salt, read-out: IC50 (MAO inhibitory activity - In vitro)
Excerpt: (A) The ability of a compound of Formula I or II to inhibit MAO can be determined in vitro by the method of A. Christmas et al, Br. J. Pharmacol. 45, 490 (1972) in partially purified mitochondria from rat brain using ^14 C p-tyramine as the substrate.

MAO [2] = test: Inhibition of MAO - Ex vivo, rat (14C p-tyramine substrate); format: in vivo; conditions: for % Inhibition of MAO - Brain: 18 hr
Experimental: (§1) The ability of a compound of Formula I or II to inhibit MAO can be determined ex vivo by the following procedure:
The test compound is administered intraperitoneally (ip), intravenously (iv), or orally (po) to rats or mice and the animals are killed at various times after treatment. […] MAO activity is determined in the homogenates using ^14 C p-tyramine, as the substrate. […] Selectivity can be determined by repeating the above-described test using either ^14 C 5-hydroxytryptamine (for MAO-A) or ^14 C phenethylamine (for MAO-B) as the substrate for determining the % inhibition

[3] = tested on: heart rate response to p-tyramine; test: Cheese effect: potentiation of heart-rate response to p-tyramine in rats; conditions: rat
Experimental: The following test procedure can be employed to assess the potential of a compound of Formula I or II for producing the "cheese effect":
Rats are administered an intravenous injection of the test compound at various dosage levels, and 30 minutes later the rats are challenged with several intravenous or intraduodenal dodes of p-tyramine. The heart rate response is measured.

MAO [4] = test: Inhibition of MAO - In vivo: change in levels of endogenous MAO substrates and metabolites in mouse brain; design: species or system mice; conditions: 2 hr
Experimental: The ability of a compound of Formula I or II to inhibit MAO can be determined in vivo in mice according to the following procedure, wherein changes in concentration of the endogenous MAO substrates and the metabolites thereof are assayed.
Mice are given an intraperitoneal injection of the test compound and 2 hours or 16 hours later the animals are killed. The levels of dopamine, dihydroxyphenylacetic acid (DOPAC), 5-hydroxytryptamine (5-HT), and 5-hydroxyindole-3-acetic acid (5-HIAA) in brain homogenates are determined by the method of J. Wagner et al, J. Chromatog. 164, 41 (1979) and P. Bey et al, Br. J. Pharmac., 70, 571 (1980).

MAO [5] = test: Inhibition of MAO - Ex vivo, mouse (14C p-tyramine substrate); format: in vivo; conditions: 24 hr
Experimental: as §1
The test compound is administered intraperitoneally (ip), intravenously (iv), or orally (po) to rats or mice and the animals are killed at various times after treatment. The brain, heart, liver, or duodenum is removed and either a crude homogenate or a mitochondrial fraction, described in Example 28, Part A, is prepared. MAO activity is determined in the homogenates using ^14 C p-tyramine, as the substrate. Table III gives the results of the testing of certain compounds according to the above-described procedure. Selectivity can be determined by repeating the above-described test using either ^14 C 5-hydroxytryptamine (for MAO-A) or ^14 C phenethylamine (for MAO-B) as the substrate for determining the % inhibition

cheese effect = conditions: low dosages; literature; cited from earlier work
Parkinson's disease = conditions: literature; cited from earlier work
depression = conditions: literature; cited from earlier work
MAO-A and MAO-B = conditions: literature; cited from earlier work

Which “Selectivity (ratio of inhibitory activity against MAO-B versus MAO-A)” value (MAO-B versus MAO-A) does the source give for NC/C(=C/F)c1ccc(Cl)cc1 [(E)-2-(4'-Chloro)phenyl-3-fluoroallylamine] here?
The value was 10.

What about the IC50 (MAO [1]) of the same molecule?
Its IC50 is 20 nM.

Which “selectivity for MAO-B as compared to MAO-A (in words)” value (MAO-B versus MAO-A) does the source give for COc1ccc(C/C(=C\F)CN)cc1 [(E)-2-(4'-Methoxy)benzyl-3-fluoroallylamine] here?
Its value is “marked selectivity for MAO-B as compared to MAO-A”.

And the “Selectivity (ratio of inhibitory activity against MAO-B versus MAO-A)” value (MAO-B versus MAO-A)?
The value was 500.

And the IC50 (MAO [1])?
Its IC50 is 3000 nM.

Which “% Inhibition of MAO - Duodenum” value (MAO [2]; 0.1 mg/kg iv, 2 hr) does the source give for COc1ccc(/C(=C\F)CN)cc1 [(E)-2-(4'-Methoxy)phenyl-3-fluoroallyl amine] here?
Its value is 80%.

And the “% Inhibition of MAO - Heart” value (MAO [2]; 0.1 mg/kg iv, 2 hr)?
Its value is 50%.

What about the “% Inhibition of MAO - Liver” value (MAO [2]; 0.1 mg/kg iv, 2 hr) of the same molecule?
Its value is 30%.

What about the “% Inhibition of MAO - Brain” value (MAO [2]; 1.0 mg/kg po) of the same molecule?
The value was 86%.

And the “% Inhibition of MAO - Brain” value (MAO [2]; 5.0 mg/kg po)?
Its value is 97%.

And the “Potentiation of heart-rate response to p-tyramine” value (shortened to “Potentiation … to p-tyramine”) ([3]; dose 0.1 (iv), p-tyramine i.d.)?
The value was 2.0 fold.

What about the “Potentiation … to p-tyramine” value ([3]; dose 0.1 (iv), p-tyramine i.v.) of the same molecule?
The value was 1.4 fold.

And the “Potentiation … to p-tyramine” value ([3]; dose 1.0 (iv), p-tyramine i.d.)?
Its value is 4.6 fold.

And the “Potentiation … to p-tyramine” value ([3]; dose 1.0 (iv), p-tyramine i.v.)?
The value was 5.2 fold.

And the “risk of producing the cheese effect (in words)” value ([3]; in vivo)?
The value was “significantly decreased risk”.

With NC/C(=C/F)Cc1ccccc1 [(E)-2-benzyl-3-fluoroallylamine, (E)-2-2-Benzyl-3-fluoroallylamine] as the molecule, how does the “selectivity for MAO-B as compared to MAO-A (in words)” value (MAO-B versus MAO-A) read?
The value was “marked selectivity for MAO-B as compared to MAO-A”.

What about the “Selectivity (ratio of inhibitory activity against MAO-B versus MAO-A)” value (MAO-B versus MAO-A) of the same molecule?
The value was 200.

And the IC50 (MAO [1])?
Its IC50 is 7500 nM.

For NC/C(=C/Cl)c1ccccc1 [(E)-2-phenyl-3-chloroallylamine, (E)-2-Phenyl-3-chloroallylamine], which IC50 (MAO [1]) is on record?
The IC50 was 100000 nM.

With NC/C(=C/F)c1ccccc1 [(E)-2-phenyl-3-fluoroallylamine, (E)-2-Phenyl-3-fluoroallylamine] as the molecule, how does the “% Inhibition of MAO - Duodenum” value (MAO [2]; 0.1 mg/kg iv, 24 hr) read?
Its value is 67%.

And the “% Inhibition of MAO - Heart” value (MAO [2]; 0.1 mg/kg iv, 24 hr)?
Its value is 85%.

And the “% Inhibition of MAO - Liver” value (MAO [2]; 0.1 mg/kg iv, 24 hr)?
Its value is 48%.

And the “% Change (compared to control) - 5-HIAA” value (MAO [4]; 1 mg/kg ip)?
Its value is -35%.

What about the “% Change (compared to control) - 5-HT” value (MAO [4]; 1 mg/kg ip) of the same molecule?
The value was “+41%”.

What about the “% Change (compared to control) - DOPAC” value (MAO [4]; 1 mg/kg ip) of the same molecule?
The value was -67%.

And the “% Change (compared to control) - Dopamine” value (from here on “% Change … - Dopamine”) (MAO [4]; 1 mg/kg ip)?
The value was “+15%”.

What about the “% Change (compared to control) - 5-HIAA” value (MAO [4]; 10 mg/kg ip) of the same molecule?
Its value is -90%.

And the “% Change (compared to control) - 5-HT” value (MAO [4]; 10 mg/kg ip)?
The value was “+90%”.

And the “% Change (compared to control) - DOPAC” value (MAO [4]; 10 mg/kg ip)?
Its value is -92%.

And the “% Change … - Dopamine” value (MAO [4]; 10 mg/kg ip)?
The value was “+32%”.

And the “% Change (compared to control) - 5-HIAA” value (MAO [4]; 100 mg/kg ip)?
The value was -91%.

What about the “% Change (compared to control) - 5-HT” value (MAO [4]; 100 mg/kg ip) of the same molecule?
The value was “+96%”.

What about the “% Change (compared to control) - DOPAC” value (MAO [4]; 100 mg/kg ip) of the same molecule?
The value was -95%.

What about the “% Change … - Dopamine” value (MAO [4]; 100 mg/kg ip) of the same molecule?
Its value is “+19%”.

What about the “% Inhibition of MAO - Brain” value (MAO [5]; 0.5 mg/kg ip) of the same molecule?
Its value is 45%.

What about the “% Inhibition of MAO - Heart” value (MAO [5]; 0.5 mg/kg ip) of the same molecule?
The value was 91%.

And the “% Inhibition of MAO - Brain” value (MAO [5]; 1.0 mg/kg ip)?
Its value is 68%.

What about the “% Inhibition of MAO - Heart” value (MAO [5]; 1.0 mg/kg ip) of the same molecule?
The value was 97%.

What about the “Potentiation … to p-tyramine” value ([3]; dose 0.1 (iv), p-tyramine i.d.) of the same molecule?
The value was 9.1 fold.

And the “Potentiation … to p-tyramine” value ([3]; dose 0.1 (iv), p-tyramine i.v.)?
The value was 8.4 fold.

What about the “Selectivity (ratio of inhibitory activity against MAO-B versus MAO-A)” value (MAO-B versus MAO-A) of the same molecule?
Its value is 10.

And the IC50 (MAO [1])?
The IC50 was 700 nM.

For CCNC/C(=C/F)c1cccc(OC)c1 [(E)-N-Ethyl 2-(3'-methoxy)phenyl-3-fluoroallylamine], which IC50 (MAO [1]) is on record?
The IC50 was 3000 nM.

For CCNC/C(=C/F)c1ccc(OC)c(OC)c1 [(E)-N-ethyl 2-(3',4'-dimethoxy)phenyl-3-fluoroallylamine], which IC50 (MAO [1]) is on record?
The IC50 was 70000 nM.

Which IC50 (MAO [1]) does the source give for NC/C(=C\F)c1ccccc1 [(Z)-2-phenyl-3-fluoroallylamine, (Z)-2-Phenyl-3-fluoroallylamine] here?
The IC50 was 1000 nM.

With C#CCN(C)[C@H](C)Cc1ccccc1 [L-deprenyl, reference compound] as the molecule, how does the “% Inhibition of MAO - Duodenum” value (MAO [2]; 1.0 mg/kg po, 2 hr) read?
The value was 62%.

And the “% Inhibition of MAO - Heart” value (MAO [2]; 1.0 mg/kg po, 2 hr)?
The value was 48%.

And the “% Change (compared to control) - 5-HIAA” value (MAO [4]; 10 mg/kg ip)?
Its value is “+9%”.

What about the “% Change (compared to control) - 5-HT” value (MAO [4]; 10 mg/kg ip) of the same molecule?
Its value is “+18%”.

And the “% Change (compared to control) - DOPAC” value (MAO [4]; 10 mg/kg ip)?
The value was -21%.

What about the “% Change … - Dopamine” value (MAO [4]; 10 mg/kg ip) of the same molecule?
The value was “+10%”.

And the “cheese effect (in words)” value (cheese effect)?
The value was “is not observed at the low dosages where preferential inhibition of MAO-B occurs”.

What about the “Potentiation … to p-tyramine” value ([3]; dose 0.1 (iv), p-tyramine i.d.) of the same molecule?
Its value is “no effect”.

What about the “Potentiation … to p-tyramine” value ([3]; dose 0.1 (iv), p-tyramine i.v.) of the same molecule?
The value was 1.3 fold.

What about the “Potentiation … to p-tyramine” value ([3]; dose 1.0 (iv), p-tyramine i.d.) of the same molecule?
Its value is 2.1 fold.

And the “Potentiation … to p-tyramine” value ([3]; dose 1.0 (iv), p-tyramine i.v.)?
Its value is 2.2 fold.

And the “potentiation of L-DOPA in Parkinson's disease (in words)” value (Parkinson's disease)?
The value was “potentiate L-DOPA for the treatment of Parkinson's disease without producing peripheral side effects”.

And the “clinical effectiveness as antidepressant (in words)” value (depression)?
Its value is “clinically effective antidepressant agents”.

Which “preferential inhibition of MAO-A or MAO-B (in words)” value (MAO-A and MAO-B) does the source give for Cc1cc(C(=O)NNCc2ccccc2)no1 [isocarboxazid] here?
Its value is “not preferential in their action upon MAO”.

Which “preferential inhibition of MAO-A or MAO-B (in words)” value (MAO-A and MAO-B) does the source give for NNCCc1ccccc1 [phenelzine] here?
Its value is “not preferential in their action upon MAO”.
